These results are taken from patent US11512085B2, “Heteroaryl compound having drug activity” (SHANGHAI DUDE MEDICAL TECHNOLOGY CO., LTD, priority 2017, dated 2022).

pIC50: −log10 of the molar value. Where only a bound is given, the exact number is not on record here.

The subject of data set [1] is DB. The experiment in a line: In vitro tumor cell proliferation (CellTiter-Glo), DB. The class given is cell-based. Particulars: Homo sapiens, 72 h, read-out: Growth IC50. On the procedure: Biological Embodiment 8: Study on Effects of Active Compounds for Inhibiting In Vitro Tumor Cell Proliferation
Promega CellTiter-Glo cell activity detection kit by luminescence (Promega-G7573).
Tumor cell lines were cultured in a 5% of CO2 incubator at 37° C. according to respective culture conditions; and periodic passage was performed, and cells positioned in a logarithmic phase were taken for planking.
3) 90 μL of cell suspension was added into each well of the culture plate, and a culture solution containing no cell was added into blank control;
4) the culture plate was cultured overnight in the 5% of CO2 incubator having relative humidity of 100% at 37° C.
Preparation of a 400× compound storage plate: the compound was diluted from the maximum concentration gradient to the lowest concentration with DMSO. […]
The following steps were performed according to the specification of the Promega CellTiter-Glo cell activity detection kit by luminescence (Promega-G7573). […]
9) the luminescence signal was detected on the 2104 EnVision plate reader.

Data set [2] in a line: Human liver microsome stability test. The class given is in vitro ADME. On the procedure: Preparation of Buffer Solution:
1. 100 mM potassium phosphate buffer solution, pH of 7.4
Preparation of Test Compound Solution:
1. A test compound solution (10 mM, 5 μL) was diluted with a methanol solution (495 μL), and a 100 μM solution was prepared;
2. Preparation of a working solution: the above solution (50 μL) was diluted with the potassium phosphate buffer solution (450 μL, 100 mM) so as to obtain diluents (10 μM).
NADPH Regeneration System (Final Concentration 1 Unit/mL of Isocitrate Dehydrogenase):
1. beta-NADP, supplier: sigma Cat. No. N0505
3. isocitrate dehydrogenase, supplier: sigma Cat. No. 12002
Cold acetonitrile containing 100 ng/mL of tolbutamide and 100 ng/mL of labetalol serves as an internal standard
1. a 10 μL/well of working solution was added into plates (T0, T5, T10, T20, T30, T60, NCF60) beyond the blank;
2. a 80 μL/well of microsome solution was added, and incubation was performed at 37° C. for 10 min;
3. a 10 μL of 100 mM phosphate buffer solution was added into each well of an NCF60 plate, the plate was placed in a warm bath at 37° C., and timing started;
4. a 10 μL/well of NADPH regeneration system was added after preheating, and a reaction started;
5. incubation was performed at 37° C., and timing started
6. a 300 μL/well of stop solution was added (4° C., containing 100 ng/mL of tolbutamide and 100 ng/mL of labetalol) to end the reaction;
7. the plate was shaken for 10 min;
8. centrifugation was performed at 4° C. at a rotation speed of 4000 rpm; and
9. sample LC/MS/MS detection was performed.
Data Analysis Use Equation of First Order Kinetics to Calculate t½ and Clint(Mic): […]
equation of first order kinetics: […]

For data set [3], the system named is p-Erk/t-Erk. Kind of data set: Western blotting of p-Erk/t-Erk in anti-IgG stimulated DOHH2 cells. The class given is cell-based. To be noted: DOHH2 cells, 5, 100, 2000 nM, 1 h, anti-IgG stimulation. On the procedure:
(§1) Biological Embodiment 4: Analysis of Influences of Test Compounds on p-Btk/t-Btk, p-PLCγ/t-PLCγ and p-Erk/t-Erk Expression Levels of DOHH2 Cells by Virtue of Western Blotting
(§2) 1) DOHH2 cells on a logarithmic phase were collected;
(§3) 2) a cell concentration was adjusted to a needed concentration;
(§4) 3) 2 ml of cell suspension was added into a 6-well plate for performing culture, three different concentrations, that is, 5 nM, 100 nM and 2000 nM, of test samples were respectively set, and each concentration was repeated once;
(§5) 4) test samples were added into plate wells, and DMSO served as control, wherein a final concentration of the DMSO was 0.1%;
(§6) 5) culture was performed for 1 h; and […]
(§7) 6. protein extraction and quantification […]
(§8) 5) a protein concentration was determined by using Pierce™ BCA Protein Assay Kit; and
(§9) 6) according to BCA protein quantification results, all samples were diluted to the same final concentration by adding 4×LDS sample buffer and 10× sample reducing agent into the RIPA buffer solution, and the solution was heated at 100° C. for 10 min. […]
(§10) 10) chemiluminiscence was detected by Tanon 5200 multi.
(§11) 7. Quantification of strip intensity
(§12) Intensity of each strip was quantified by using Image quant densitometry software. […]

The subject of data set [4] is p-Btk/t-Btk. Kind of data set: Western blotting of p-Btk/t-Btk in anti-IgG stimulated DOHH2 cells. The class given is cell-based. Particulars: DOHH2 cells, 5, 100, 2000 nM, 1 h, anti-IgG stimulation. The protocol: as §1, §2, §3, §4, §5, §6, §7, §8, §9, §10, §11, §12

Regarding `C=CC(=O)NN1CCCC(n2nc(-c3ccc(Oc4ccccc4)cc3)c3c(N)ncnc32)C1` (centres unmarked) [Embodiment 6, N-(3-(4-amino-3-(4-phenoxyphenyl)-1H-pyrazolo[3,4-D]pyrimidine-1-yl)-1-piperidyl)-acrylamide], the pIC50 in data set [1] was < 5.00. In addition, in data set [2] (HLM 0.5, 60 min, no co-factor), the “Remaining (*NCF = 60 min)” value is listed as 105.9%. Also, the “Remaining (T = 60 min)” value in data set [2] (HLM 0.5, 60 min with NADPH regenerating system) is reported as 0.2%. This compound showed a half-life at 1 µM in data set [2] (human, liver microsomes, pH 7.4, HLM 0.5 (0.5 mg protein/mL)) of 4.3 min. Moreover, the microsomal CLint at 1 µM in data set [2] (human, liver microsomes, pH 7.4, HLM 0.5, read-out: CLint(mic)) was determined as 325 µL/min/mg. This compound also had a CLint scaled at 1 µM in data set [2] (human, liver microsomes, pH 7.4, HLM 0.5, scaled from CLint(mic)) of 292 mL/min/kg. For the same compound, the “relative level of p-Erk/t-Erk” value in data set [3] is “obviously decreased”. For the same compound, the “relative level of p-Btk/t-Btk” value in data set [4] is recorded as “obviously decreased”.
